Data taken from US11814444B2, “Cyclic polypeptides for PCSK9 inhibition” (Ra Pharmaceuticals, Inc., priority 2018, dated 2023).
Numbered stars: 1 amine (or outer) side, 2 acyl side, 3 side chain; on linkers, the order of the positions; unused ones are H or OH. Bridge positions count the residues as written; N and C are the ends. Square brackets hold non-standard residues; d marks the D form. Peptide text beside a SMILES is read from it. Phe(4-COOH) = N[C@@H](Cc1ccc(C(=O)O)cc1)C(=O)O; Trp(7-aza) = N[C@@H](Cc1c[nH]c2ncccc12)C(=O)O; X1 = C[C@@](N[*:1])(C(=O)[*:2])c1ccccc1; X7 = O=C(CCSCc1cccc(CSCCN[*:1])c1)[*:2]; 1Nal = N[C@@H](Cc1cccc2ccccc12)C(=O)O; 2Nal = N[C@@H](Cc1ccc2ccccc2c1)C(=O)O; Ac4c(3,3-F2) = NC1(C(=O)O)CC(F)(F)C1; mXylylene = c1cc(C[*:1])cc(C[*:2])c1; Aad = N[C@@H](CCCC(=O)O)C(=O)O; Chg = N[C@H](C(=O)O)C1CCCCC1; PEG4 = NCCOCCOCCOCCOCCC(=O)O; Tle = CC(C)(C)[C@H](N)C(=O)O; αMeV = CC(C)[C@](C)(N)C(=O)O; NMeV = CN[C@H](C(=O)O)C(C)C; hSer = N[C@@H](CCO)C(=O)O; Iva = CC[C@](C)(N)C(=O)O; Ac5c = NC1(C(=O)O)CCCC1; Nva = CCC[C@H](N)C(=O)O; Thp = NC1(C(=O)O)CCOCC1; Aib = CC(C)(N)C(=O)O; Mpa = O=C(O)CCS

Target: human PCSK9 / human LDLR EGFa domain interaction (Homo sapiens, UniProt Q8NBP7)
Test: TR-FRET assay of inhibition of the PCSK9-LDLR protein-protein interaction
Type: binding
Conditions: 20 nM avitag-biotinylated human PCSK9, 20 nM his-tagged human LDLR EGFa domain, 2 hours, room temperature
Description: A time-resolved fluorescence resonance energy (TR-FRET) assay was used to measure inhibition of the PCSK9-LDLR protein-protein interaction. Briefly, 20 nM avitag-biotinylated human PCSK9 was incubated with 20 nM his-tagged human LDLR EGFa domain in the presence of 5 nM LANCE Ulight Streptavidin (Perkin Elmer) and 5 nM europium-Anti-6×His (Perkin Elmer) for 2 hours covered at room temperature in buffer containing 50 mM HEPES, 150 mM NaCl, 5 mM CaCl2), 0.01% BSA and 0.01% Surfactant P20. Compounds were tested in dose-response and concentrations giving half-maximal inhibition calculated using a 4-parameter fit equation.

Sequence of human PCSK9 / human LDLR EGFa domain interaction (Q8NBP7 153-692): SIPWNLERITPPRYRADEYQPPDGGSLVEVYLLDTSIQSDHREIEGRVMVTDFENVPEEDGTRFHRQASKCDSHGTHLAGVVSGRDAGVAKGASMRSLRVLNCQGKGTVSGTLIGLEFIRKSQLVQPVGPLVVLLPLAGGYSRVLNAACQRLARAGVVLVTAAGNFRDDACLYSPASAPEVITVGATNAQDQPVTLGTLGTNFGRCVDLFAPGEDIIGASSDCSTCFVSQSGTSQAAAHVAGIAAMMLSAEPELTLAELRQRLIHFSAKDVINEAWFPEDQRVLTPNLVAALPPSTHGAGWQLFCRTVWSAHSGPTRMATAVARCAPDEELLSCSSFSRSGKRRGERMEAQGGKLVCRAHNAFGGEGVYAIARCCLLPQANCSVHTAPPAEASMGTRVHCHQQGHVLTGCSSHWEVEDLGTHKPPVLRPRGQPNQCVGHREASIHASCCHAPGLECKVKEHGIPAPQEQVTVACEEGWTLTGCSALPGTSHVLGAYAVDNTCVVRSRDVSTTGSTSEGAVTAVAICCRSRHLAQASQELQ
Sequence of human PCSK9 / human LDLR EGFa domain interaction (Q8NBP7 31-152 partner limits assumed): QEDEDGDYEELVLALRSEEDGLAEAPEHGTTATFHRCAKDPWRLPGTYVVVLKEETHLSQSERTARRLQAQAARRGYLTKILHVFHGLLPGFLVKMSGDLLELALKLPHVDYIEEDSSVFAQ

| Compound | IC50 |
| --- | --- |
| CC[C@]1(C)NC(=O)[C@H](Cc2c[nH]c3ncccc23)NC(=O)[C@H]([C@@H](C)O)NC(=O)[C@@H]2CCCN2C(=O)[C@H](Cc2ccc(O)cc2)NC(=O)[C@H](C(C)(C)C)NC(=O)[C@@H](NC(C)=O)CSCc2cccc(c2)CSC[C@H](C(N)=O)NC(=O)[C@H]([C@@H](C)O)NC(=O)[C@](C)(C(C)C)NC(=O)[C@H](Cc2ccc(O)cc2)NC(=O)[C@H](C)NC1=O [Compound 193] (Ac-C[Tle]YPT[Trp(7-aza)][Iva]AY[αMeV]T[dC]-NH2; linker 1-12 via mXylylene) | 1 to 100 nM |
| CCC[C@@H]1NC(=O)[C@H](Cc2cccc3ccccc23)NC(=O)[C@H]([C@@H](C)O)NC(=O)[C@H](Cc2c[nH]cn2)NC(=O)[C@H](Cc2ccc(O)cc2)NC(=O)[C@H](C(C)(C)C)NC(=O)CCSCc2cccc(c2)CSC[C@@H](C(N)=O)NC(=O)[C@H]([C@@H](C)O)NC(=O)[C@H](CCC)NC(=O)[C@H](Cc2ccc(O)cc2)NC(=O)[C@H](CCC(=O)O)NC1=O [Compound 277] ([Mpa][Tle]YHT[1Nal][Nva]EY[Nva]TC-NH2; linker 1-12 via mXylylene) | 100 to 1000 nM |
| CCC[C@@H]1NC(=O)[C@H](Cc2ccc3ccccc3c2)NC(=O)[C@H]([C@@H](C)O)NC(=O)[C@H](Cc2c[nH]cn2)NC(=O)[C@H](Cc2ccc(O)cc2)NC(=O)[C@H](C(C)(C)C)NC(=O)CCSCc2cccc(c2)CSC[C@@H](C(N)=O)NC(=O)[C@H]([C@@H](C)O)NC(=O)[C@H](CCC)NC(=O)[C@H](Cc2ccc(O)cc2)NC(=O)[C@H](CCC(=O)O)NC1=O [Compound 276] ([Mpa][Tle]YHT[2Nal][Nva]EY[Nva]TC-NH2; linker 1-12 via mXylylene) | 1000 to 21000 nM |
| CCC[C@@H]1NC(=O)[C@H](Cc2c[nH]c3ncccc23)NC(=O)[C@H]([C@@H](C)OC)NC(=O)[C@H](Cc2c[nH]cn2)NC(=O)[C@H](Cc2ccc(O)cc2)NC(=O)[C@H](C(C)(C)C)NC(=O)CCSCc2cccc(c2)CSC[C@@H](C(N)=O)NC(=O)[C@H]([C@@H](C)O)NC(=O)[C@H](CCC)NC(=O)[C@H](Cc2ccc(O)cc2)NC(=O)[C@H](CCC(=O)O)NC1=O [Compound 333] ([Mpa][Tle]YHT(Me)[Trp(7-aza)][Nva]EY[Nva]TC-NH2; linker 1-12 via mXylylene) | 1000 to 21000 nM |
| CCC[C@@H]1NC(=O)[C@H](Cc2c[nH]c3ccccc23)NC(=O)[C@H]([C@@H](C)O)NC(=O)[C@@H]2CCCN2C(=O)[C@H](Cc2ccc(O)cc2)NC(=O)[C@H](C(C)(C)C)NC(=O)CCSCc2cccc(c2)CSC[C@@H](C(N)=O)NC(=O)[C@H]([C@@H](C)O)NC(=O)[C@](C)(C(C)C)NC(=O)[C@H](Cc2ccc(O)cc2)NC(=O)[C@H](C)NC1=O [Compound 177] ([Mpa][Tle]YPTW[Nva]AY[αMeV]TC-NH2; linker 1-12 via mXylylene) | 1000 to 21000 nM |
| CCC[C@H](NC(C)=O)C(=O)N[C@H]1CSCc2cccc(c2)CSC[C@@H](C(N)=O)NC(=O)[C@H]([C@@H](C)O)NC(=O)[C@H](C2CCCCC2)NC(=O)[C@H](Cc2c[nH]c3ncccc23)NC(=O)[C@H](Cc2c[nH]cn2)NC(=O)[C@H](CCC(=O)O)NC(=O)[C@H](Cc2c[nH]c3ncccc23)NC(=O)[C@H]([C@@H](C)O)NC(=O)[C@@H]2CCCN2C(=O)[C@H](Cc2ccc(O)cc2)NC(=O)[C@H](C(C)(C)C)NC1=O [Compound 152] (Ac-[Nva]C[Tle]YPT[Trp(7-aza)]EH[Trp(7-aza)][Chg]TC-NH2; linker 2-13 via mXylylene) | 1 to 100 nM |
| C[C@@H](O)[C@@H]1NC(=O)[C@H](C2CCCCC2)NC(=O)[C@H](Cc2c[nH]c3ncccc23)NC(=O)[C@H](Cc2c[nH]cn2)NC(=O)[C@H](CCC(=O)O)NC(=O)[C@H](Cc2c[nH]c3ncccc23)NC(=O)[C@H]([C@@H](C)O)NC(=O)[C@@H]2CCCN2C(=O)[C@H](Cc2ccc(O)cc2)NC(=O)[C@H](C(C)(C)C)NC(=O)CCSCc2cccc(c2)CSC[C@@H](C(N)=O)NC1=O [Compound 154] ([Mpa][Tle]YPT[Trp(7-aza)]EH[Trp(7-aza)][Chg]TC-NH2; linker 1-12 via mXylylene) | 100 to 1000 nM |
| CCC[C@@H]1NC(=O)[C@H](Cc2c[nH]c3ncccc23)NC(=O)[C@H]([C@@H](C)O)NC(=O)[C@@H]2CCCN2C(=O)[C@H](Cc2ccc(O)cc2)NC(=O)[C@H](C(C)(C)C)NC(=O)CCSCc2cccc(c2)CSC[C@@H](C(=O)NCCOCCOCCOCCOCCC(N)=O)NC(=O)[C@H]([C@@H](C)O)NC(=O)[C@H](CCC)NC(=O)[C@H](Cc2ccc(O)cc2)NC(=O)[C@H](C)NC1=O [Compound 163] ([Mpa][Tle]YPT[Trp(7-aza)][Nva]AY[Nva]TC[PEG4]-NH2; linker 1-12 via mXylylene) | 100 to 1000 nM |
| CC(=O)N[C@H]1CSCc2cccc(c2)CSC[C@H](C(N)=O)NC(=O)[C@H]([C@@H](C)O)NC(=O)[C@](C)(C(C)C)NC(=O)[C@H](Cc2ccc(O)cc2)NC(=O)[C@H](C)NC(=O)C2(CC(F)(F)C2)NC(=O)[C@H](Cc2c[nH]c3ncccc23)NC(=O)[C@H]([C@@H](C)O)NC(=O)[C@@H]2CCCN2C(=O)[C@H](Cc2ccc(O)cc2)NC(=O)[C@H](C(C)(C)C)NC1=O [Compound 195] (Ac-C[Tle]YPT[Trp(7-aza)][Ac4c(3,3-F2)]AY[αMeV]T[dC]-NH2; linker 1-12 via mXylylene) | 1000 to 21000 nM |
| CCC[C@@H]1NC(=O)[C@H](Cc2ccc(O)cc2)NC(=O)[C@H](C)NC(=O)C(C)(C)NC(=O)[C@H](Cc2c[nH]c3ncccc23)NC(=O)[C@H]([C@@H](C)O)NC(=O)[C@@H]2CCCN2C(=O)[C@H](Cc2ccc(O)cc2)NC(=O)[C@H](C(C)(C)C)NC(=O)[C@@H](NC(C)=O)CCCC(=O)NCCCC[C@@H](C(N)=O)NC(=O)C(C)(C)NC1=O [Compound 049] (Ac-[Aad][Tle]YPT[Trp(7-aza)][Aib]AY[Nva][Aib]K-NH2; lactam 1-12) | 100 to 1000 nM |
| CCC[C@@H]1NC(=O)[C@H](Cc2c[nH]c3ncccc23)NC(=O)[C@H]([C@@H](C)O)NC(=O)[C@H](Cc2c[nH]cn2)NC(=O)[C@H](Cc2ccc(O)cc2)NC(=O)[C@H](C(C)(C)C)NC(=O)CCSCc2cccc(c2)CSC[C@@H](C(N)=O)NC(=O)[C@H]([C@@H](C)O)NC(=O)[C@H](CCC)NC(=O)[C@H](Cc2ccc(O)cc2)NC(=O)[C@H](Cc2ccc(C(=O)O)cc2)NC1=O [Compound 278] ([Mpa][Tle]YHT[Trp(7-aza)][Nva][Phe(4-COOH)]Y[Nva]TC-NH2; linker 1-12 via mXylylene) | 21000 to 50000 nM |

Continued, values first:

| IC50 | Compound |
| --- | --- |
| 100 to 1000 nM | CCC[C@@H]1NC(=O)[C@H](Cc2c[nH]c3ncccc23)NC(=O)[C@H]([C@@H](C)O)NC(=O)[C@H](Cc2c[nH]cn2)NC(=O)[C@H](Cc2ccc(O)cc2)NC(=O)[C@H](C(C)(C)C)NC(=O)CCSCc2cccc(c2)CSC[C@@H](C(N)=O)NC(=O)[C@H]([C@@H](C)O)NC(=O)[C@H](CCC)NC(=O)[C@H](Cc2ccc(O)cc2)NC(=O)[C@H](CCO)NC1=O [Compound 274] ([Mpa][Tle]YHT[Trp(7-aza)][Nva][hSer]Y[Nva]TC-NH2; linker 1-12 via mXylylene) |
| 100 to 1000 nM | CCC[C@H](NC(C)=O)C(=O)N[C@H]1CSCc2cccc(c2)CSC[C@@H](C(N)=O)NC(=O)[C@H]([C@@H](C)O)NC(=O)[C@H](CCC)NC(=O)[C@H](Cc2ccc(O)cc2)NC(=O)[C@H](CCC(=O)O)NC(=O)[C@H](CCC)NC(=O)[C@H](Cc2c[nH]c3ncccc23)NC(=O)[C@H]([C@@H](C)O)NC(=O)[C@@H]2CCCN2C(=O)[C@H](Cc2ccc(O)cc2)NC(=O)[C@H](C(C)(C)C)NC1=O [Compound 153] (Ac-[Nva]C[Tle]YPT[Trp(7-aza)][Nva]EY[Nva]TC-NH2; linker 2-13 via mXylylene) |
| 100 to 1000 nM | CCC[C@@H]1NC(=O)[C@H](Cc2ccc(O)cc2)NC(=O)[C@H](CCC(=O)O)NC(=O)C2(CCCC2)NC(=O)[C@H](Cc2c[nH]c3ncccc23)NC(=O)[C@H]([C@@H](C)O)NC(=O)[C@H](Cc2c[nH]cn2)NC(=O)[C@H](Cc2ccc(O)cc2)NC(=O)[C@H](C(C)(C)C)NC(=O)CCSCc2cccc(c2)CSC[C@@H](C(N)=O)NC(=O)[C@H]([C@@H](C)O)NC1=O [Compound 299] ([Mpa][Tle]YHT[Trp(7-aza)][Ac5c]EY[Nva]TC-NH2; linker 1-12 via mXylylene) |
| 1 to 100 nM | C[C@@H](O)[C@@H]1NC(=O)[C@H](Cc2c[nH]cn2)NC(=O)[C@H](Cc2ccc(O)cc2)NC(=O)[C@H](C(C)(C)C)NC(=O)CCSCc2cccc(c2)CSC[C@@H](C(N)=O)NC(=O)[C@H]([C@@H](C)O)NC(=O)[C@](C)(c2ccccc2)NC(=O)[C@H](Cc2ccc(O)cc2)NC(=O)[C@H](CCC(=O)O)NC(=O)C(C)(C)NC(=O)[C@H](Cc2c[nH]c3ncccc23)NC1=O [Compound 293] ([Mpa][Tle]YHT[Trp(7-aza)][Aib]EY[X1]TC-NH2; linker 1-12 via mXylylene) |
| 1000 to 21000 nM | CC(C)[C@H]1C(=O)N[C@@H](Cc2ccccc2)C(=O)N2CCC[C@H]2C(=O)N[C@@H]([C@@H](C)O)C(=O)N[C@@H](Cc2cccc3ccccc23)C(=O)NC(C)(C)C(=O)N[C@@H](C)C(=O)N[C@@H](Cc2ccccc2)C(=O)N[C@@](C)(C(C)C)C(=O)N[C@@H](C)C(=O)NCCSCc2cccc(c2)CSCCC(=O)N1C [Compound 143] (cyclo([1Nal][Aib]AF[αMeV]A[X7][NMeV]FPT)) |
| 100 to 1000 nM | CCC[C@@H]1NC(=O)[C@H](Cc2ccc(O)cc2)NC(=O)[C@H](CCC(=O)O)NC(=O)C2(CCOCC2)NC(=O)[C@H](Cc2c[nH]c3ncccc23)NC(=O)[C@H]([C@@H](C)O)NC(=O)[C@H](Cc2c[nH]cn2)NC(=O)[C@H](Cc2ccc(O)cc2)NC(=O)[C@H](C(C)(C)C)NC(=O)CCSCc2cccc(c2)CSC[C@@H](C(N)=O)NC(=O)[C@H]([C@@H](C)O)NC1=O [Compound 300] ([Mpa][Tle]YHT[Trp(7-aza)][Thp]EY[Nva]TC-NH2; linker 1-12 via mXylylene) |
